From patent publication US6586000B2, “Hydroxide-releasing agents as skin permeation enhancers” (Dermatrends, Inc., priority 1999, dated 2003)

Assay: In vitro permeation of oxytocin solution through NaOH-pretreated skin, Franz-type diffusion cells
Type: in vitro ADME, human
Protocol: (§1) The volume of receiver solution was 8 ml. […] Eighteen diffusion cells were used in this study. A 2% NaOH aqueous solution (50 μl) was introduced to the donor chambers of nine cells (cells #1 to 9) and a 4% NaOH aqueous solution (50 μl) was introduced to the donor chambers of the other nine cells (cells #10 to 18). Once the NaOH solution is applied, the donor chamber was covered with parafilm.
After 5 hours, the NaOH solution was washed away from the skin for 3 cells (cells #1 to 3) that were treated with 2% NaOH solution and 3 cells (cells #10 to 12) that were treated with 4% NaOH solution. […] After 24 hours, the NaOH solution was washed away from the skin for 3 cells (cells #7 to 9) that were treated with 2% NaOH solution and 3 cells (cells #16 to 18) that were treated with 4% NaOH solution. To wash away the NaOH solution, the receiving fluid was removed and replaced with fresh DI water. This was done twice. DI water was added to the donor chamber to dilute the NaOH solution and then the donor solution was removed. This was repeated several times.
After the NaOH solution was washed away from the skin, the solution in the donor chamber was completely removed and replaced by 50 μl of an oxytocin solution. Once the oxytocin solution is applied, the donor chamber was covered with parafilm.
The cells were filled with DI water as a receiver solution. The DI water had been degased to remove air bubbles. […] The samples taken were analyzed by HPLC for the concentration of oxytocin in the receiver solution. The cumulative amount of oxytocin across human cadaver skin was calculated using the measured oxytocin concentrations in the receiver solutions for each time point, which were listed in Table 46.
as §1, with “0.25%” for “2%”, “A 1.0%” for “a 4%”
After 5 hours, the NaOH solution was washed away from the skin for 3 cells (cells #1 to 3) that were treated with […] and 3 cells (cells #10 to 12) that were treated with 1.0% NaOH solution. After 11 hours, the NaOH solution was washed away from the skin for 3 cells (cells #4 to 6) that were treated with 0.25% NaOH solution and 3 cells (cells #13 to 15) that were treated with 1.0% NaOH solution. After 24 hours, the NaOH solution was washed away from the skin for 3 cells (cells #7 to 9) that were treated with 0.25% NaOH solution and 3 cells (cells #16 to 18) that were treated with 1.0% NaOH solution. To wash away the NaOH solution, the receiving fluid was removed and replaced with fresh DI water. This was done twice. DI water was added to the donor chamber to dilute the NaOH solution and then the donor solution was removed. This was repeated several times until the pH of donor solution was less than 8.
The cells were filled with DI water as a receiver solution. The DI water has been degased to remove air bubbles. […] The cumulative amount of oxytocin across human cadaver skin was calculated using the measured oxytocin concentrations in the receiver solutions for each time point, which were listed in Table 48.

Cumulative Amount of Oxytocin Permeated Across Human Cadaver Skin (skin pretreated by 1.0% NaOH for 5 hr, 4.25 hours): 0.45 μg/cm^2
Cumulative Amount of Oxytocin Permeated Across Human Cadaver Skin (skin pretreated by 1.0% NaOH for 5 hr, 24 hours): 0.97 μg/cm^2
Cumulative Amount of Oxytocin Permeated Across Human Cadaver Skin (skin pretreated by 1.0% NaOH for 5 hr, […]): 0.97 μg/cm^2
Cumulative Amount of Oxytocin Permeated Across Human Cadaver Skin (skin pretreated by 1.0% NaOH for 11 hr, 4.25 hours): 53.42 μg/cm^2
Cumulative Amount of Oxytocin Permeated Across Human Cadaver Skin (skin pretreated by 1.0% NaOH for 11 hr, 24 hours): 75.36 μg/cm^2
Cumulative Amount of Oxytocin Permeated Across Human Cadaver Skin (skin pretreated by 1.0% NaOH for 11 hr, […]): 67.97 μg/cm^2
Cumulative Amount of Oxytocin Permeated Across Human Cadaver Skin (skin pretreated by 1.0% NaOH for 24 hr, 4.25 hours): 13.23 μg/cm^2
Cumulative Amount of Oxytocin Permeated Across Human Cadaver Skin (skin pretreated by 1.0% NaOH for 24 hr, 24 hours): 30.97 μg/cm^2
Cumulative Amount of Oxytocin Permeated Across Human Cadaver Skin (skin pretreated by 1.0% NaOH for 24 hr, […]): 21.06 μg/cm^2
Cumulative Amount of Oxytocin Permeated Across Human Cadaver Skin (skin pretreated by 4% NaOH for 5 hr, 5 hours): 118.95 μg/cm^2
Cumulative Amount of Oxytocin Permeated Across Human Cadaver Skin (skin pretreated by 4% NaOH for 5 hr, 15 hours): 200.66 μg/cm^2
Cumulative Amount of Oxytocin Permeated Across Human Cadaver Skin (skin pretreated by 4% NaOH for 5 hr, 24 hours): 225.52 μg/cm^2
Cumulative Amount of Oxytocin Permeated Across Human Cadaver Skin (skin pretreated by 4% NaOH for 15 hr, 5 hours): 202.28 μg/cm^2
Cumulative Amount of Oxytocin Permeated Across Human Cadaver Skin (skin pretreated by 4% NaOH for 15 hr, 15 hours): 222.45 μg/cm^2
Cumulative Amount of Oxytocin Permeated Across Human Cadaver Skin (skin pretreated by 4% NaOH for 15 hr, 24 hours): 231.58 μg/cm^2
Cumulative Amount of Oxytocin Permeated Across Human Cadaver Skin (skin pretreated by 4% NaOH for 24 hr, 5 hours): 193.82 μg/cm^2
Cumulative Amount of Oxytocin Permeated Across Human Cadaver Skin (skin pretreated by 4% NaOH for 24 hr, 15 hours): 232.72 μg/cm^2
Cumulative Amount of Oxytocin Permeated Across Human Cadaver Skin (skin pretreated by 4% NaOH for 24 hr, 24 hours): 236.80 μg/cm^2
Compound: CC[C@H](C)[C@@H]1NC(=O)[C@H](Cc2ccc(O)cc2)NC(=O)[C@@H](N)CSSC[C@@H](C(=O)N2CCC[C@H]2C(=O)N[C@@H](CC(C)C)C(=O)NCC(N)=O)NC(=O)[C@H](CC(N)=O)NC(=O)[C@H](CCC(N)=O)NC1=O [Oxytocin, oxytocin]
